Each molecule was assayed against T1, Acetylcholinesterase (Mus musculus, UniProt P21836).
T1 sequence (P21836 whole entry): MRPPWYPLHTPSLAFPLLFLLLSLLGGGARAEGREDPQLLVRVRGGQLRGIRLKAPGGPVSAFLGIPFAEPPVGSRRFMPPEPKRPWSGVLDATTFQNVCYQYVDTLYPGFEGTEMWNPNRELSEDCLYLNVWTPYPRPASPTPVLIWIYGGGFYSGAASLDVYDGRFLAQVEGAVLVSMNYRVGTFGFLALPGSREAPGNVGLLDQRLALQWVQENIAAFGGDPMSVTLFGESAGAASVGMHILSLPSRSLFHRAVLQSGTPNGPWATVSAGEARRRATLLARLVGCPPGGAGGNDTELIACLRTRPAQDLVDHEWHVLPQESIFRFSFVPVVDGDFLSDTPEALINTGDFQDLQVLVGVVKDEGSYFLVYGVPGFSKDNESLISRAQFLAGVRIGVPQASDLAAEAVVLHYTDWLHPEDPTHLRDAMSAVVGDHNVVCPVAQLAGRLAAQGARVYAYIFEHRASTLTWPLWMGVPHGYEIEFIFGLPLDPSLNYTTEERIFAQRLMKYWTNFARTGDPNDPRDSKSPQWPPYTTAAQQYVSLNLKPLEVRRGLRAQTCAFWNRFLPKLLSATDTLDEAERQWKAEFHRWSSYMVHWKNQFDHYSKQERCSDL
Description: Inhibitory activity against acetylcholinesterase
For `COc1cc2c(cc1OC)C(=O)C(CCCC1CCN(Cc3ccccc3)CC1)C2` (stereo not drawn), the IC50 was 1.5 nM.
`COc1ccc(OC)c2c1CC(CC1CCN(Cc3ccccc3)CC1)C2=O` (stereo not drawn) gave an IC50 of 36 nM.
Work on `O=C1c2ccccc2CC1CCC1CCN(Cc2ccccc2)CC1` (stereo not drawn) yielded an IC50 of 230 nM.
`COc1ccc2c(c1OC)C(=O)C(CC1CCN(Cc3ccccc3)CC1)C2` (stereo not drawn) showed an IC50 of 85 nM.
`COc1cc2c(cc1OC)C(=O)C(CC1CCN(Cc3cccc(C)c3)CC1)C2` (stereo not drawn) gave an IC50 of 2 nM.
`COc1cc2c(cc1OC)C(=O)/C(=C\C1CCN(Cc3ccccc3)CC1)C2` was tested, and the IC50 was 13 nM.
For `COc1ccc2c(c1OC)CC(CC1CCN(Cc3ccccc3)CC1)C2=O` (stereo not drawn), the IC50 was 20 nM.
`CNC(=O)Oc1ccc2c(c1)[C@]1(C)CCN(C)[C@@H]1N2C` [PHYSOSTIGMINE] showed an IC50 of 0.68 nM.
